Results on three compounds are retold here after patent US6506779B1, “Acetylene derivatives as anti-inflammatory/analgesic agents” (Pfizer Inc., priority 1999, dated 2003).

As to `CS(=O)(=O)c1ccc(-n2nc(C(F)(F)F)cc2-c2ccc(C#Cc3ccccc3)cc2)cc1` [Example 15, 1-[4-(Methylsulfonyl)Phenyl]-5-[4-(Phenylethynyl)Phenyl]-3-Trifluoromethyl-1H-Pyrazole], the melting point (commonly the temperature, or range, at which the solid turns liquid) was in the range of 170 to 172 °C. `CCCCC#Cc1ccc(-c2cc(C(F)(F)F)nn2-c2ccc(S(C)(=O)=O)cc2)cc1` [Example 16, 5-[4-(1-Hexyn-1-yl)Phenyl]-1-[4-(Methylsulfonyl)Phenyl]-3-Trifluoromethyl-1H-Pyrazole] gave a melting point of 96 to 98 °C. For the compound `CS(=O)(=O)c1ccc(-n2nc(C(F)(F)F)cc2-c2ccc(C#CCCCO)cc2)cc1` [Example 17, 5-[4-(5-Hydroxy-1-Pentyn-1-yl)Phenyl]-1-[4-(Methylsulfonyl)Phenyl]-3-Trifluoromethyl-1H-Pyrazole], the melting point was in the range of 87 to 90 °C.
